The text below walks through data of PubChem BioAssay AID179 (DTP/NCI, 2004).

This test relates to CEM cells HIV-1 protection, formazan growth assay. Briefly: NCI AIDS Antiviral Assay. Particulars: for IC50: measured here: growth of uninfected CEM cells. Put shortly:
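Protection of CEM cells against HIV-1 measured as cell growth via soluble formazan read-out, with five concentrations tested on both infected and uninfected cells; failure to protect may reflect toxicity.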

SMILES strings stand for the structures. The source made the active and inactive calls.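 How the source made its calls: active means compounds giving half or more protection of infected cells from virus-caused growth loss, again on retest; inactive means the rest.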 Where a SMILES comes first, the peptide text is derived from it. Bridges are numbered along the chain shown (N, C = ends). [ ]: non-standard residue; d: D form. The star is where a group is joined. ξ: configuration not given here. Dnp = O=[N+]([O-])c1ccc(*)c([N+](=O)[O-])c1; Hpg = N[CH](C(=O)O)c1ccc(O)cc1; Bz = O=C(c1ccccc1)*; ξC = NC(CS)C(=O)O Bounds are passed on as bounds.

With `O=C(C[C@H](NC(=O)OCc1ccccc1)C(=O)NC1Cc2ccccc2OC1=O)OCc1ccccc1` (some centres undefined), the EC50 was above 200 µM and the 50% inhibitory concentration (IC50) turned out to be 93.3 µM.

Take `O=c1c2nc(-c3ccccc3)oc2n(-c2ccccc2)c(=O)n1-c1ccccc1`: the EC50 was above 200 µM and the IC50 was 117 µM.

Consider `CCC12C=CCN3CC[C@]4(C(=C(C(=O)OC)[C@@H]1Nc1ncnc5c1ncn5C1OC(COC(C)=O)C(OC(C)=O)C1OC(C)=O)Nc1ccccc14)C32` (some centres undefined), for which the EC50 is above 13.8 µM and the IC50 turned out to be 7.76 µM.

On to `N#C/C(=C\c1ccc(O)c(O)c1)C(=O)NCCCCNC(=O)/C(C#N)=C/c1ccc(O)c(O)c1`, for which the EC50 was above 200 µM and the IC50 is 24 µM.

As to `C=c1[nH]c(=O)c(=C)[nH]c1=O`, the EC50 was above 72.4 µM and the IC50 stood at 26.3 µM.

As to `COc1ccc(/C=N\N2C(=O)Cc3ccccc32)cc1`, the EC50 was above 37.2 µM and the IC50 was above 37.2 µM.

On to `CC1CN(c2ccc(Cl)cc2)CC(C)(C)OC(=O)O1` (centres undefined), for which the EC50 was above 331 µM and the concentration for half-maximal inhibition (IC50) was found to be 21.4 µM.

On to `N=c1c2c(ncn1N)Oc1c(c(-c3ccccc3)nn1-c1ccccc1)C2c1ccc(Cl)cc1` (centres undefined), for which the EC50 is above 200 µM and the IC50 was 2.09 µM.

For the molecule `COc1cc2c(c(O)c1OC)C(=O)[C@@H]1CCC(=O)N1C2`, the EC50 is above 123 µM and the IC50 is 112 µM.

In the case of `CN1CC2CC3=C(CCC45CC6C(C=C34)C63CCC4(CC67CCC8C9(C)CCCC8%10C(C6CC4CC7%10)N(C)C9)OC53)C(C)(C2)C1` (centres undefined), the outcome was inactive.

On to `Cn1c(-c2ccccc2)cc2c3ccsc3c3ccsc3c21`, for which the EC50 is above 200 µM and the IC50 amounted to 45.7 µM.

As for `Cc1cc(Cl)ccc1N=C1NC(=O)C(CC(=O)Nc2cccc(C)c2C)S1` (centres undefined), the EC50 was above 234 µM and the IC50 was found to be 66.1 µM.

Take `CC(=O)OC(Cc1cc(C=C(C(F)(F)F)C(F)(F)F)cc(C)n1)(C(F)(F)F)C(F)(F)F`: the EC50 is above 200 µM and the IC50 was determined as 0.955 µM.

With `CN(C(=O)C12C3(C(=O)C(C)(C)C)C4C5(C#N)C3C1(C(=O)C(C)(C)C)C5C42C(=O)C(C)(C)C)C(C)(C)C` (centres undefined), the EC50 is above 52.5 µM and the IC50 was above 52.5 µM.

Consider `Nc1ncnc2c1ncn2C1SC(CO)C(O)C1O` (centres undefined), for which the EC50 was 45.7 µM and the IC50 is 148 µM.

Turning to `CCN(CC)CCOc1ccc(/C=C(\C#N)c2ccc(OC)cc2)cc1`, the EC50 was above 200 µM and the IC50 was determined as 2.14 µM.

With `CC(=O)Nc1ccc(/C(C#N)=C/c2ccc(N(C)CCC#N)cc2)cc1`, the EC50 is above 200 µM and the half-inhibitory concentration (IC50) came to 19.1 µM.

As for `O=C(NCCCNCCN1C(=O)c2cccc3cc([N+](=O)[O-])cc(c23)C1=O)c1cc(-c2ccccc2)nc2ccccc12`, the EC50 is above 200 µM and the IC50 was found to be 1.05 µM.

As for `CCCCCCCCCCN(CCCCCCCCCC)CC(=O)Nc1ccc(S(=O)(=O)c2ccc(NC(=O)CN(CCCCCCCCCC)CCCCCCCCCC)cc2)cc1`, the EC50 is above 50.1 µM and the IC50 worked out at 3.02 µM.

With `CCCc1cc(=O)oc2c3c(c4c(c12)OC(C)(C)C=C4)O[C@H](C)[C@@H](C)[C@H]3O[Si](C)(C)C(C)(C)C`, the EC50 was above 200 µM and the IC50 is above 200 µM.

With `CS(=O)(=O)OCCN(CCOS(C)(=O)=O)c1ccc(C=Nc2ccc(-c3csc(COc4ccccc4)n3)cc2)cc1`, the EC50 is above 200 µM and the IC50 was found to be 0.457 µM.

As for `CN(C)c1nc(=NCc2ccccc2)ss1`, the EC50 was above 200 µM and the IC50 was determined as 10.2 µM.

Consider `N#Cc1cnn2ccn(C3OC(COC(=O)c4ccccc4)C(OC(=O)c4ccccc4)C3OC(=O)c3ccccc3)c12` (centres undefined), for which the EC50 is above 200 µM and the IC50 was above 200 µM.

Take `O=S(c1ccccc1)C1CC2CC3(CCC21O)OCCO3` (centres undefined): the EC50 was above 200 µM and the IC50 is above 200 µM.

As for `CNc1ccc(C)cc1S(=O)(=O)c1ccc([N+](=O)[O-])cc1`, the EC50 is above 200 µM and the IC50 is above 200 µM.

Consider `CSc1nc(NC2OC(COC(C)=O)C(OC(C)=O)C(OC(C)=O)C2OC(C)=O)c2c(n1)OCC2=O` (centres undefined), for which the EC50 was above 67.6 µM and the IC50 was above 67.6 µM.

On to `C=C(C)CC1=C(C(=S)NCCO[Si](C)(C)C(C)(C)C)C(OCC)(OCC)C1=O`, for which the EC50 was above 200 µM and the IC50 was 11.5 µM.

As to `O=C1NCCCCC1CC/C=C/c1ccccc1` (centres undefined), the EC50 was above 148 µM and the IC50 came to 95.5 µM.

Take `Cc1cccc(C)c1NC(=O)CCCC(=O)C1/C(=N/NC(=O)CC#N)CCC/C1=N\NC(=O)CC#N` (centres undefined): the EC50 was above 72.4 µM and the IC50 is above 72.4 µM.

Consider `CC1(C(=O)O)CCCC2(C)[C@@H]3CCC4CC3(CC[C@H]12)C[C@@]4(C)O` (some centres undefined), for which the EC50 is above 200 µM and the IC50 is above 200 µM.

In the case of `COc1ccc(COC2C(C/[N+]([O-])=N\Nc3ccc([N+](=O)[O-])cc3)OC3OC(C)(C)OC32)cc1` (centres undefined), the EC50 is above 200 µM and the IC50 stood at 12.6 µM.

For `CN1c2ccccc2C2=C(C3=C(CS2)C(=O)CCS3)S1(=O)=O`, the EC50 was above 38.9 µM and the IC50 is above 38.9 µM.

Take `CCOC(=O)C1(Br)C(c2ccccc2)NC(=O)NC1(C)Br` (centres undefined): the EC50 is above 85.1 µM and the IC50 was above 85.1 µM.

Regarding `Cc1nn(C(=O)CC(=O)Nc2ccc(Cl)cc2)c(C)c1N=Nc1ccccc1F`, the outcome was inactive.

In the case of `O=C1C(Cl)C(c2ccccc2O)N1n1cnc2ccccc2c1=O` (centres undefined), the EC50 is above 14.5 µM and the IC50 is above 14.5 µM.

Take `Nc1ccc(C(=O)CC2(O)C(=O)Nc3c(Cl)cc(Cl)cc32)cc1` (centres undefined): the EC50 is above 33.9 µM and the IC50 came to 18.6 µM.

`N#C/C(=C\c1cc(O)c(O)c(I)c1)C(=O)NCCCc1ccccc1`: the EC50 was above 200 µM and the IC50 came to 9.55 µM.

With `CCOC(=O)C1=C(Nc2ccc(Cl)c(Cl)c2)OC/C1=N\NC(=O)Cc1ccccc1`, the EC50 is above 100 µM and the IC50 is above 100 µM.

For `CC1CCOc2ccc(cc2)C=Nc2ccc(cc2)CCc2ccc(cc2)N=Cc2ccc(cc2)OCC1` (centres undefined), the EC50 was above 200 µM and the IC50 was above 200 µM.

For `COc1cccc(/C=C(\NC(C)=O)c2nc3ccc(Cl)cc3[nH]2)c1`, the outcome was inactive.

On to `COC(=O)C(CSc1ccc([N+](=O)[O-])cc1[N+](=O)[O-])NC(=O)CNC(=O)c1ccccc1` (centres undefined) (Bz-Gly-[ξC](Dnp)-OMe), for which the EC50 is above 15.5 µM and the IC50 is above 15.5 µM.

Consider `COc1ccccc1C1=C2C(=O)N(C)C(c3ccccc3OC)=C2C(=O)N1C`, for which the EC50 was above 100 µM and the IC50 was above 100 µM.

For `O=c1[nH]c2cc(Cl)ccc2n1C1CCN(CCCC(c2ccc(F)cc2)c2ccc(F)cc2)CC1`, the EC50 was above 200 µM and the IC50 stood at 18.6 µM.

For `CCC(C)C1NC(=O)C2CCCN2C(=O)C(Cc2ccc(O)cc2)NC(=O)C(CC(N)=O)NC(=O)C(CCC(N)=O)NC(=O)C(CO)NC(=O)C(C(C)C)NC(=O)C(N)CSSCC(C(=O)O)NC(=O)C(CCC(N)=O)NC(=O)C(C(C)C)NC1=O` (centres undefined) (H-CVSQNYPIVQC-OH; disulfide 1-11; configuration not given here), the EC50 is above 50.1 µM and the IC50 was above 50.1 µM.

For the molecule `NC(=O)C(F)(Cc1ccccc1)C(=O)O` (centres undefined), the EC50 is above 200 µM and the IC50 is above 200 µM.

For `Cc1nc(Nc2ccc(Cl)cc2)sc1C(=O)NNC(=S)NN`, the EC50 was above 83.2 µM and the half-inhibitory concentration (IC50) came to 33.1 µM.

Regarding `Oc1cc2cccc[n+]2c2cc(Cl)ccc12`, the EC50 was above 200 µM and the IC50 is 91.2 µM.

For `Cc1cc(C#N)c(=S)n(C2OC(CO)C(O)C(O)C2O)c1C` (centres undefined), the EC50 was above 200 µM and the IC50 is above 200 µM.

`Oc1ccc[n+](Cc2ccccc2)c1`: the EC50 was above 200 µM and the IC50 is above 200 µM.

On to `Cc1[nH]nc2c1NC(=O)OC(C)(C)C2`, for which the EC50 is above 479 µM and the IC50 is above 479 µM.

As to `CC(C)C(O)C(=O)C(O)C(C)C` (centres undefined), the EC50 is above 1020 µM and the concentration for half-maximal inhibition (IC50) was above 1020 µM.

In the case of `CCN(CC)C(=O)Cc1c(C(=O)N(CC)CC)c(=O)nc2sccn12`, the EC50 is above 692 µM and the IC50 was above 692 µM.

In the case of `COc1ccc(N2C(=O)C3c4[nH]c5ccccc5c4C4CC(C)CC(C)C4C3C2=O)cc1` (centres undefined), the EC50 was above 2.45 µM and the IC50 was above 2.45 µM.

For `COC12c3ccccc3-c3ccccc3C1[C@@H](C(=O)O)[C@H]2C(=O)O` (some centres undefined), the EC50 is above 776 µM and the IC50 is above 776 µM.

For the molecule `NNC1=N/C(=C\c2ccccc2O)C(=O)N1`, the EC50 is above 200 µM and the IC50 amounted to 35.5 µM.

Turning to `CC(C)CC(N)C(=O)NC(C(N)=O)c1ccc(O)cc1` (centres undefined) (H-Leu-[Hpg]-NH2; configuration not given here), the EC50 was above 200 µM and the IC50 is above 200 µM.

For `Clc1ccc(CCn2cncn2)cc1`, the EC50 is above 537 µM and the IC50 was found to be 525 µM.

`O=C1C(=Cc2ccccc2O)N=C(c2ccccc2)N1n1c(-c2ccccc2)nc2ccccc2c1=O`: the EC50 was above 200 µM and the IC50 came to 10.2 µM.

In the case of `CN(C)c1nc(=NCc2ccncc2)ss1`, the EC50 is above 200 µM and the concentration for half-maximal inhibition (IC50) stood at 10.7 µM.

Regarding `COc1cc2c(c(OC)c1OC)C(=O)[C@H]1OC(=O)N[C@@H]21`, the EC50 was above 200 µM and the IC50 is above 200 µM.

In the case of `CCN(CC)c1cc2oc(=O)cc(C)c2cc1[N+](=O)[O-]`, the EC50 is above 95.5 µM and the IC50 was 40.7 µM.

For `Oc1c(Br)cc(Br)cc1-c1[nH]c(Br)c(Br)c1Br`, the EC50 is above 234 µM and the IC50 is 1.02 µM.

On to `S=C(N/N=C\c1ccccn1)N(Cc1ccccn1)Cc1ccccn1`, for which the EC50 is above 2 µM and the IC50 came out at 0.955 µM.

With `Cc1ccc(-c2c(C#N)c(O)n(NS(=O)(=O)c3ccccc3)c(=O)c2C#N)cc1`, the EC50 is above 200 µM and the IC50 is above 200 µM.

For `NCC(O)c1cc(I)c(Oc2ccc(O)cc2)c(I)c1` (centres undefined), the EC50 is above 200 µM and the IC50 came to 15.5 µM.

For `COC(=O)N1c2c(ccc3c2OCO3)C23C4CN5CCCC(CCC12C(=O)OC)(CC4=O)C53` (centres undefined), the EC50 is above 7.94 µM and the 50% inhibitory concentration (IC50) is above 7.94 µM.

The term EC50 denotes the concentration needed to bring the measured effect to its halfway point. A word on the IC50: it is the concentration at which inhibition is half-maximal. Higher therefore signals a need for much substance.
